Measurements: US10130616B2, “Securinine and norsecurinine analogue compounds for the treatment of myeloid disorders” (Case Western Reserve University, priority 2013, dated 2018)
pEC50, pIC50: −log10 of the molar value. Read-outs that look alike come from different tables or passages of the source.

How the values were obtained:
HL-60 leukemic cells = assay: Nitroblue Tetrazolium (NBT) reduction assay, differentiation of HL-60 leukemic cells; type: cell-based, human
From the text: In an aspect of the present disclosure, the compounds of the disclosure can be identified using a novel high-throughput screen that is biased to identify agents that have both a high potency and low toxicity in a myeloid disorder disease model, such as an animal or cell model. In some embodiments, the high-throughput screen measures the differentiation of HL-60 leukemic cells using a quantitative nitroblue tetrazolium (NBT) reduction assay. Screening HL-60 cells, human promyelocytic cells, is advantageous as they have been used extensively as a cell line to study myeloid differentiation. Though promyelocytic cells, HL-60 cells were derived from a patient with acute myeloblastic leukemia with maturation, FAB-M2.
This technique has also been widely exploited in HL-60 cells to analyze myelomonocytic differentiation.
The NBT screen works due to changes in the oxidoreductases during differentiation that lead to increases in rates of NBT reduction. NBT is reduced due to the production of superoxide that is catalyzed by an NADPH oxidase. […] NBT is reduced by superoxide from a soluble yellow compound to insoluble blue formazan granules whose formation can be monitored spectrophotometrically at 560 nm as the unreduced dye has minimal absorbance at this wavelength. A quantitative NBT reduction assay is ideal for this type of screen as it is simple, sensitive, quantitative, requires minimal cells, has been proven to have low well to well variability, and the amount of reduced NBT is proportional to the number of cells reducing the dye as well as the amount reduced by each cell.
To discover novel AML differentiation-inducing compounds a rapid high-throughput screen (HTS) was developed and optimized. The screen was designed to be biased to identify compounds that, unlike the majority of known differentiation-inducing agents, have both high potency and low toxicity. The screen measured the differentiation of HL-60 leukemic cells using a quantitative Nitroblue Tetrazolium (NBT) reduction assay, a test that is used extensively as a measure of functional myelomonocytic differentiation. The basis for the screen is unreduced NBT exists as a yellow soluble dye. Differentiated leukemic cells are capable of producing a respiratory burst that can reduce NBT into a blue insoluble compound that can be measured spectrophotometrically. This forward chemical genetics approach allowed the discovery of novel compounds that can act on targets not previously known to be “drugable.” As only live cells can reduce NBT, the screen is biased in identifying relatively nontoxic compounds.
To perform the screen, duplicate plates of HL-60 cells were cultured at a density of 5×10^4 cells/mL with 10 μM of each compound in 96 well plates for 5 days. To determine the relative capability for a compound to induce differentiation compared to known potent inducers, each plate destined for the NBT reduction assay included wells with 0.1% DMSO (vehicle control) and 1 μM ATRA. This approach eliminates any slight day to day variation in NBT reduction values and allows the discovery of compounds with similar or greater efficacy to ATRA. Differentiation was determined in the 96 well plates by incubating the cells with 1 mg/mL of NBT and 200 ng/mL of PMA as the stimulant for the respiratory burst for 35 minutes at 37° C. The reaction was then stopped with HCl and the formazan solubilized with DMSO. Finally, the reaction mixture was read spectrophotometrically at 560 nm in a plate reader.
The securinine and norsecurinine analogues were tested and evaluated on their abilities to affect differentiation and growth of HL-60 cells (Table 1).

HL-60 cells = assay: Growth of HL-60 cells (IC50); type: cell-based, human; conditions: for pIC50: Homo sapiens, HL-60, HL-60 cells, value bracketed between tested concentrations, read-out: HL-60, IC50
[1] = Homo sapiens, HL-60, read-out: HL-60, Dif50
[2] = Homo sapiens, HL-60 cells, value bracketed between tested concentrations, read-out: HL-60, Dif50

O=C1C=C2CC(SC3CCCC3)[C@@H]3C[C@@]2(O1)[C@H]1CCCCN31 (stereo partly drawn) [Compound 97]
pEC50 (HL-60 leukemic cells; [1]): 4.70 to 4.82

O=C1C=C2C(C#Cc3cc(F)cc(F)c3)=C[C@@H]3C[C@@]2(O1)[C@H]1CCCCN31 [Compound 37]
pIC50 (HL-60 cells): 5.00 to 5.30

O=C1C=C2C(C#CCC3CCCC3)=C[C@@H]3C[C@@]2(O1)[C@H]1CCCCN31 [Compound 24]
pIC50 (HL-60 cells): 5.60 to 5.90

Nc1ccc(C#CC2=C[C@@H]3C[C@@]4(OC(=O)C=C24)[C@H]2CCCCN32)cc1 [Compound 63]
pIC50 (HL-60 cells): 6.81

CO[C@H]1CC2=CC(=O)O[C@@]23C[C@@H]1N1CCCC[C@@H]13 [INVS-MG-97-IIB]
pEC50 (HL-60 leukemic cells; HL-60 cells, value bracketed between tested concentrations, read-out: HL-60, Dif50): < 4.52

CCCSC1CC2=CC(=O)O[C@@]23C[C@@H]1N1CCCC[C@@H]13 (stereo partly drawn) [Compound 74]
pEC50 (HL-60 leukemic cells; [2]): 4.70 to 4.82

CCN(CC)CCSC1CC2=CC(=O)O[C@@]23C[C@@H]1N1CCCC[C@@H]13 (stereo partly drawn) [Compound 73]
pEC50 (HL-60 leukemic cells; [2]): 4.82 to 5.00

C[N+]12CCCC[C@@H]1[C@]13C[C@H]2C=C(I)C1=CC(=O)O3 (stereo partly drawn) [Compound 9]
pIC50 (HL-60 cells): 5.12 to 5.30

Cc1ccccc1C#CC1=C[C@@H]2C[C@@]3(OC(=O)C=C13)[C@H]1CCCCN21 [Compound 38]
pIC50 (HL-60 cells): 5.60 to 5.90

O=C1C=C2CC(NC3CC(O)C3)[C@@H]3C[C@@]2(O1)[C@H]1CCCCN31 (stereo partly drawn) [Compound 85]
pEC50 (HL-60 leukemic cells; [2]): 4.82 to 5.00

O=C1C=C2CC(NC3CCCC3)[C@@H]3C[C@@]2(O1)[C@H]1CCCCN31 (stereo partly drawn) [Compound 81]
pEC50 (HL-60 leukemic cells; [2]): 4.82 to 5.00

CCCCC#CC1=C[C@@H]2C[C@@]3(OC(=O)C=C13)[C@H]1CCCCN21 [Compound 20]
pIC50 (HL-60 cells): 5.60

O=C1C=C2CC(N3CCC(F)(F)C3)[C@@H]3C[C@@]2(O1)[C@H]1CCCCN31 (stereo partly drawn) [Compound 68]
pEC50 (HL-60 leukemic cells; [2]): < 4.52

CC(C)(C)c1ccc(C#CC2=C[C@@H]3C[C@@]4(OC(=O)C=C24)[C@H]2CCCCN32)cc1 [Compound 32]
pIC50 (HL-60 cells): 5.90

COC(OC)[C@H]1CC[C@H]2N1[C@@H]1C=C(I)C3=CC(=O)O[C@@]32C1 [Compound 1]
100% Death (HL-60 cells; HL-60 cells, concentration giving 100% death): 100% Death <2.5

O=C1C=C2C(C#Cc3ccc(-c4ccccc4)cc3)=C[C@@H]3C[C@@]2(O1)[C@H]1CCCCN31 [Compound 51]
pIC50 (HL-60 cells): > 7.15

CC(C)(C)c1ccc(C2=C[C@@H]3C[C@@]4(OC(=O)C=C24)[C@H]2CCCCN32)cc1 [Compound 5]
pIC50 (HL-60 cells): 4.52 to 4.70

CC(C)SC1CC2=CC(=O)O[C@@]23C[C@@H]1N1CCCC[C@@H]13 (stereo partly drawn) [Compound 75]
pEC50 (HL-60 leukemic cells; [2]): 4.70 to 4.82

O=C1C=C2C(C#CCOc3ccccc3)=C[C@@H]3C[C@@]2(O1)[C@H]1CCCCN31 [Compound 33]
pIC50 (HL-60 cells): 5.90 to 6.20

CCCCCCCSC1CC2=CC(=O)O[C@@]23C[C@@H]1N1CCCC[C@@H]13 (stereo partly drawn) [Compound 71]
pEC50 (HL-60 leukemic cells; [1]): 4.52 to 4.70

COc1ccc(CN[C@H]2CC3=CC(=O)O[C@@]34C[C@@H]2N2CCCC[C@@H]24)cc1 [Compound 86]
pEC50 (HL-60 leukemic cells; [2]): 4.70 to 4.82

O=C1C=C2CC(SC34CC5CC(CC(C5)C3)C4)[C@@H]3C[C@@]2(O1)[C@H]1CCCCN31 (stereo partly drawn) [Compound 66]
pEC50 (HL-60 leukemic cells; [2]): < 4.52

O=C1C=C2CC(n3nnc4ccccc43)[C@@H]3C[C@@]2(O1)[C@H]1CCCCN31 (stereo partly drawn) [Compound 92]
pEC50 (HL-60 leukemic cells; [2]): 4.52 to 4.70

O=C1C=C2CC(n3ccnc3)[C@@H]3C[C@@]2(O1)[C@H]1CCCCN31 (stereo partly drawn) [Compound 99]
pEC50 (HL-60 leukemic cells; [2]): 4.70 to 4.82

O=C1C=C2CC(NC3CCCCCCC3)[C@@H]3C[C@@]2(O1)[C@H]1CCCCN31 (stereo partly drawn) [Compound 84]
pEC50 (HL-60 leukemic cells; [2]): < 4.52

O=C1C=C2CC(NC3CCCCC3)[C@@H]3C[C@@]2(O1)[C@H]1CCCCN31 (stereo partly drawn) [Compound 82]
pEC50 (HL-60 leukemic cells; [2]): 4.70 to 4.82

O=C1C=C2C[C@H](S(=O)(=O)c3ccccc3)[C@@H]3C[C@@]2(O1)[C@H]1CCCCN31 [Compound 88]
pEC50 (HL-60 leukemic cells; [2]): 5.12 to 5.30

CC(C)CC#CC1=C[C@@H]2C[C@@]3(OC(=O)C=C13)[C@H]1CCCCN21 [Compound 16]
pIC50 (HL-60 cells): 5.60 to 5.90

CC(C)(C)OC(=O)NCCSC1CC2=CC(=O)O[C@@]23C[C@@H]1N1CCCC[C@@H]13 (stereo partly drawn) [Compound 95]
pEC50 (HL-60 leukemic cells; [2]): 4.70 to 4.82

O=C1C=C2C(C#CC3CC3)=C[C@@H]3C[C@@]2(O1)[C@H]1CCCCN31 [Compound 25]
pIC50 (HL-60 cells): 5.60 to 5.90
